According to US9862680B2, “Peripherally substituted monocyclic beta-lactams” (University of Notre Dame du Lac, priority 2016, dated 2018):

Key:
[1] = tested on: P. Aeruginosa K799/wt; test: Agar diffusion assay (modified Kirby-Bauer); type: cell-based; details: P. Aeruginosa K799/wt (wild type); 2 mM solution, 50 μL in 9.0 mm well; P unclear, V very unclear zone, * slightly misshapen zone
Experimental: (§1) Antibacterial activity of the compounds was determined by a modified Kirby-Bauer^27-28 agar-diffusion assay. Overnight cultures of test organisms were grown in LB broth for 18-24h and standard suspensions of […] were prepared in saline solution (0.9% NaCl) according to a 0.5 BaSO4 McFarland Standard. This standardized suspension (0.1 mL) was added to 34 mL of sterile, Mueller Hinton No. 2 agar tempered to 47-50° C. After gentle mixing, the inoculated agar media was poured into a sterile plastic petri dish (145 mm×20 mm) and allowed to solidify near a flame with the lid cracked for 30 min. Wells of 9.0 mm diameter were cut from the petri dish agar and filled with exactly 50 μL of the test sample solution. For studies using mixtures of compounds, both test compounds were diluted to equal concentrations and 50 μL of the mixed compound solution was added to the cut well. The petri dish was incubated at 37° C. for 18-24 h and the inhibition zone diameters were measured (mm) with an electronic caliper after 24-48 h.
(§2) All compound-containing solutions were prepared by first making a 20 mM solution of the compound in DMSO and then diluting that solution 10-fold with MeOH to give the final 2 mM solution used in the assay.
(§3) Plates were incubated after inoculation at 37° C. for 20 hours. Plates were photographed after 1 day. M. vaccae required a longer incubation time, 48 hours, and was photographed after 3 days.

[2] = tested on: S. Aureus SG511; test: Agar diffusion assay (modified Kirby-Bauer); type: cell-based; details: 2 mM solution, 50 μL in 9.0 mm well, P unclear, V very unclear zone, * slightly misshapen zone
Experimental: as §1, §2, §3

[3] = tested on: E. Coli DC2; test: Agar diffusion assay (modified Kirby-Bauer); type: cell-based; details: E. Coli DC2, 2 mM solution, 50 μL in 9.0 mm well, P unclear, V very unclear zone, * slightly misshapen zone
Experimental: as §1, §2, §3

[4] = tested on: M. Vaccae IMET 10670; test: Agar diffusion assay (modified Kirby-Bauer); type: cell-based; details: 2 mM solution, 50 μL in 9.0 mm well, 48 hours incubation, P unclear, V very unclear zone, * slightly misshapen zone
Experimental: as §1, §2, §3

[5] = tested on: B. Subtilis ATCC 6633; test: Agar diffusion assay (modified Kirby-Bauer); type: cell-based; details: 2 mM solution, 50 μL in 9.0 mm well, P unclear, V very unclear zone, * slightly misshapen zone
Experimental: as §1, §2, §3

[6] = tested on: B. Dolosa AU 0018; test: Agar diffusion assay (modified Kirby-Bauer); type: cell-based; details: 2 mM solution, 50 μL in 9.0 mm well, P unclear, V very unclear zone, * slightly misshapen zone
Experimental: as §1, §2, §3

[7] = tested on: P. Aeruginosa K799/61; test: Agar diffusion assay (modified Kirby-Bauer); type: cell-based; details: P. Aeruginosa K799/61 (permeability mutant); 2 mM solution, 50 μL in 9.0 mm well; P unclear, V very unclear zone, * slightly misshapen zone
Experimental: as §1, §2, §3

[8] = tested on: M. Luteus ATCC 10240; test: Agar diffusion assay (modified Kirby-Bauer); type: cell-based; details: M. Luteus ATCC 10240, 2 mM solution, 50 μL in 9.0 mm well, P unclear, V very unclear zone, * slightly misshapen zone
Experimental: as §1, §2, §3

[9] = tested on: E. Coli DC0; test: Agar diffusion assay (modified Kirby-Bauer); type: cell-based; details: 2 mM solution, 50 μL in 9.0 mm well, P unclear, V very unclear zone, * slightly misshapen zone
Experimental: as §1, §2, §3

[10] = tested on: A. Baumannii ATCC 17961; test: Agar diffusion assay (modified Kirby-Bauer); type: cell-based; details: 2 mM solution, 50 μL in 9.0 mm well, P unclear, V very unclear zone, * slightly misshapen zone
Experimental: as §1, §2, §3

[11] = tested on: panel of Gram-positive and Gram-negative bacteria; test: Kirby-Bauer agar diffusion assays, results in words; type: cell-based
Experimental: as §1, §2, §3

[12] = tested on: panel of Gram-positive and Gram-negative bacteria; test: MIC determination; type: cell-based; details: same panel of Gram-positive and Gram-negative bacteria, all values
[13] = biological target: PAM 2035; test: β-lactamase inhibition, Ki by enzyme kinetics; type: biochemical; details: PAM 2035, class C
[14] = biological target: T1, NDM-1 (Klebsiella pneumoniae, UniProt C7C422); test: β-lactamase inhibition, Ki by enzyme kinetics (imipenem); type: biochemical; details: NDM-1, class B
T1 construct: purchased Emerald Bioscience
Experimental: (§4) The enzymes KPC-2, Oxa-48, AmpC and NDM-1 were purchased from Emerald Bioscience and the enzymes CTX-14 and SHV-12 were expressed and purified from E. coli at Rempex pharmaceutical (San Diego, Calif.).
(§5) To the first row of a 2-mL deep 96-well block was added 1 mL of 50 mM sodium phosphate buffer at pH 7 with 0.1 mg/mL BSA (bovine serum albumin). To the first row was added an appropriate amount of a 10 mg/mL solution of the compound to be tested to make a 640 μM (4×) solution. Each of the other wells in the 96-well block were charged with 750 μL of the aforementioned buffer. The rows were then repeatedly diluted 1:3 so that the final concentrations of the individual 96-well plates would range in concentrations from 160 μM to 3 nM (8 dilutions). The master block was then used to add 50 pt to each corresponding well in the 96-well flat-bottom plate. An additional 50 of buffer was added to each well. Once the plates were prepared, 50 μL of the enzyme to be tested against were added in buffer to each well [KPC-2 (0.147 mg/mL), CTX-M-14 (0.102 mg/mL), […] (0.331 mg/mL), AmpC (0.699 mg/mL), SHV-12 (0.111 mg/mL), NDM-1 (0.110 mg/mL)]. The plates were incubated at rt for 10 min before 50 μL. of an appropriate indicator were added to each well and the optical density at 495 nm was measured over time. For each enzyme, other than NDM-1, nitrocefin was used. Nitrocefin (10 μM for SHV-12, 50 μM for the other enzymes), was appropriate because when cleaved by a β-lactamase, the color changes from yellow to red. For NDM-1, imipenem (10 μM) was the indicator of choice. Rather than observe the growing presence of optical density at 495 nm, as with nitrocefin, the disappearance of imipenem was monitored. The inhibition curves were monitored and used to perform enzyme kinetics according to Waley to determine the Ki (μM) of each compound against the β-lactamases screened.

[15] = tested on: selected β-lactamase enzymes from classes A, B, C and D; test: β-lactamase inhibitory activity, results in words; type: biochemical; details: C and D (Ambler classification)
Experimental: as §5

[16] = biological target: VIM-1 (Pseudomonas aeruginosa, UniProt A0A0F7KYQ8); test: β-lactamase inhibition, Ki by enzyme kinetics; type: biochemical; details: VIM-1, class B
[17] = biological target: T2, SHV-12 (Klebsiella pneumoniae, UniProt P0AD64, E235K/G234S/L31Q); test: β-lactamase inhibition, Ki by enzyme kinetics (nitrocefin); type: biochemical; details: SHV-12, class A
T2 construct: host or cells: E. coli
Experimental: as §4, §5

[18] = biological target: T3, CTX-M-14 (Escherichia coli, UniProt Q9L5C7); test: as above; type: biochemical; details: CTX-M-14, class A
T3 construct: host or cells: E. coli
Experimental: as §4, §5

[19] = biological target: T4, Oxa-48 (Klebsiella pneumoniae, UniProt Q6XEC0); test: as above; type: biochemical; details: Oxa-48, class D
T4 construct: purchased Emerald Bioscience
Experimental: as §4, §5

[20] = biological target: AmpC; test: as above; type: biochemical; details: class C
Experimental: as §4, §5

[21] = biological target: T5, KPC-2 (Klebsiella pneumoniae, UniProt Q9F663); test: as above; type: biochemical; details: KPC-2, class A
T5 construct: purchased Emerald Bioscience
Experimental: as §4, §5

T5 sequence (Q9F663 25-293 limits assumed): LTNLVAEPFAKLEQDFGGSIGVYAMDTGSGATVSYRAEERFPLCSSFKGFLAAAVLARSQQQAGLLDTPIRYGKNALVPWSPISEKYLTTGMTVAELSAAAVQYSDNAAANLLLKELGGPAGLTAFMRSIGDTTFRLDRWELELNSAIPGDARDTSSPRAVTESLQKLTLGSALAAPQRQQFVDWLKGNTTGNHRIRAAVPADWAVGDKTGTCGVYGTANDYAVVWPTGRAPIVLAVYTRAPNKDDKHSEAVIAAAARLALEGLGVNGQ
T1 sequence (C7C422 29-270 limits assumed): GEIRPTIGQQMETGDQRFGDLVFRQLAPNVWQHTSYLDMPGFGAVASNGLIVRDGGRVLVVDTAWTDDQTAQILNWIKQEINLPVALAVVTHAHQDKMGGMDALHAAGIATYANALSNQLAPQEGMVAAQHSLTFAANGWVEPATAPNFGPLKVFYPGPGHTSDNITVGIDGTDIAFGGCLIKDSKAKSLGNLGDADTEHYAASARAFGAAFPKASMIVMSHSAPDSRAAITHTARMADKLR
T2 sequence (P0AD64 22-286 L31Q/G234S/E235K): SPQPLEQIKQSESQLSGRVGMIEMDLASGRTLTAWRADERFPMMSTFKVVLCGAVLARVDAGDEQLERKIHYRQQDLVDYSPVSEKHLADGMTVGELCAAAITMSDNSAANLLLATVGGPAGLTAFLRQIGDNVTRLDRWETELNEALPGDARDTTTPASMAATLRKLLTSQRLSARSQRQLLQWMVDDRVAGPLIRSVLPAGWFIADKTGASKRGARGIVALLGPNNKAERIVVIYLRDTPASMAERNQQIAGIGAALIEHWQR
T3 sequence (Q9L5C7 entry or part of it): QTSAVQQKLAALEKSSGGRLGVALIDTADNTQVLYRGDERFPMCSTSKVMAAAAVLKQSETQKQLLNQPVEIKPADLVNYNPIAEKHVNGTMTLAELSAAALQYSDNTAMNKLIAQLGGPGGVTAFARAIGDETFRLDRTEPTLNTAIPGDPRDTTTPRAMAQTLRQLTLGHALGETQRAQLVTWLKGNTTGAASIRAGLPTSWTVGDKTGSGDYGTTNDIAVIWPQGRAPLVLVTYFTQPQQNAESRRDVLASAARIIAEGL
T4 sequence (Q6XEC0 23-265 limits assumed): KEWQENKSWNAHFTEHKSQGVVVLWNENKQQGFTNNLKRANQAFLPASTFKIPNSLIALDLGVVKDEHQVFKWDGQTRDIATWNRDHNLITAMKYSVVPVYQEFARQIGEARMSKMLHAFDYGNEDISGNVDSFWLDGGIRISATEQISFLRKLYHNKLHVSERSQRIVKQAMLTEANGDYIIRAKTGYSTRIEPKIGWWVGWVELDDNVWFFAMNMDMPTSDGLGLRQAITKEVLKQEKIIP

SMILES	Zone of Growth Inhibition [1]	Zone of Growth Inhibition [5]	Zone of Growth Inhibition [7]	Zone of Growth Inhibition [9]	Zone of Growth Inhibition [10]	Ki [13] [µM]	Ki [14] [µM]	Zone of Growth Inhibition [3] [mm]	Zone of Growth Inhibition [6] [mm]	β-lactamase inhibitory activity, selectivity [15]	Ki [16] [µM]	Ki [17] [µM]	Ki [18] [µM]	Ki [19] [µM]	Ki [20] [µM]	Ki [21] [µM]	Zone of Growth Inhibition [2]	also measured
CC(C)(C)OC(=O)NCCSC[C@@H]1NC(=O)[C@H]1NC(=O)OCC1c2ccccc2-c2ccccc21 [Compound 41]	15P	13P	16P	15V	13P													zone of inhibition at 2000 µM ([2]; Staphylococcus aureus, read-out: Zone of Growth Inhibition): 0 mm; zone of inhibition at 2000 µM ([3]; Escherichia coli, read-out: Zone of Growth Inhibition): 0 mm; Zone of Growth Inhibition [4]: 17V; zone of inhibition at 2000 µM ([6]; Burkholderia dolosa, read-out: Zone of Growth Inhibition): 0 mm; zone of inhibition at 2000 µM ([8]; Micrococcus luteus, ATCC10240, read-out: Zone of Growth Inhibition): 0 mm; antibacterial activity ([11]; E. coli strains DC0 and DC2): only active against the permeability mutant DC0; antibacterial activity ([11]; P. aeruginosa, both the wild type (K799/0 wt) and the permeability mutant (K799/61)): showed activity; antibacterial activity ([11]; against B. subtilis and M. vaccae, A. baumannii, P. aeruginosa and E. coli): moderate activity; MIC [12]: > 50 µM
O=C1CC(CBr)N1OS(=O)(=O)/C=C/c1ccccc1 (stereo not drawn) [Compound 61a]	0 mm	15* mm	0 mm	0 mm	0 mm	> 160	> 160	0	0	inhibited enzymes from both classes A and D	> 160	0.779	0.149	1.48	> 160	19.3		Zone of Growth Inhibition [8]: 17 mm
O=C1CC(CBr)N1OS(=O)(=O)c1cccc2ccccc12 (stereo not drawn) [Compound 61b]	0 mm	12 mm	0 mm	0 mm	0 mm	> 160	> 160	0	0	inhibited enzymes from both classes A and D		0.198	> 160	4.67	> 160	> 160	14P	
O=C1CC(CBr)N1OS(=O)(=O)c1ccc2ccccc2c1 (stereo not drawn) [Compound 61c]	0 mm		0 mm	0 mm	0 mm	> 160	> 160	0	0	active only against the class A enzyme SHV-12	> 160	0.19	> 160	> 160	> 160	> 160	15 mm	
